Measured values taken from paper PMC10187093, “Synthesis, in silico modelling, and in vitro biological evaluation of substituted pyrazole derivatives as potential anti-skin cancer, anti-tyrosinase, and antioxidant agents” (Journal of Enzyme Inhibition and Medicinal Chemistry, 2023).
Read-outs that look alike come from different tables or passages of the source.

Legend:
mushroom tyrosinase = biological target: T1, mushroom tyrosinase (Agaricus bisporus, UniProt C7FF04); assay: In vitro mushroom tyrosinase inhibition assay; format: biochemical
T1 construct: purchased Sigma-Aldrich Chemical Company (St. Louis, MO) and MP Biomedicals (Irvine, CA)
T1 sequence (C7FF04 1-392 limits assumed): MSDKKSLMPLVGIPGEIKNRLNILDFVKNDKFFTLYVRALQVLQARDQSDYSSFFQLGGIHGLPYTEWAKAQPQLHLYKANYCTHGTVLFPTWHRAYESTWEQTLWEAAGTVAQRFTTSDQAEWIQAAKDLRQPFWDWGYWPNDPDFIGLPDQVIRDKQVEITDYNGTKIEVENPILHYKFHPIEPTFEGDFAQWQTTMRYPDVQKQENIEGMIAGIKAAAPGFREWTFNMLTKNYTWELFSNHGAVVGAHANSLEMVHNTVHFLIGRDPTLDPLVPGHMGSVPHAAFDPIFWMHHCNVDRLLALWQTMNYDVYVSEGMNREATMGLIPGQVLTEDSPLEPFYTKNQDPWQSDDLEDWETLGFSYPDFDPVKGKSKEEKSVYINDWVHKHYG
Protocol: The anti-tyrosinase potential of all the synthesised derivatives was determined by an enzymatic tyrosinase inhibition assay based on their ability to inhibit the substrate, L-tyrosine, from binding to the tyrosinase enzyme. […] Test samples were dissolved in DMSO at a concentration of 10 mM and then diluted to different concentrations with phosphate buffer (0.1 M, pH 6.8). Each well contained 40 µL of the sample with 80 µL of phosphate buffer solution (0.1 M, pH 6.8), 40 µL of tyrosinase enzyme (100 units/mL), and 40 µL L-tyrosine (2.5 mM). The mixture was incubated for 30 min at room temperature, and absorbance was measured at 490 nm. Each sample was accompanied by a sample blank containing all components except tyrosinase. […] The percentage of tyrosinase inhibition was calculated as follows: ((ΔAcontrol – ΔAsample)/ΔAcontrol) × 100. IC50 values denoted the sample concentration required to inhibit 50% tyrosinase activity (Table S1).

SCC-12 = assay: MTT antiproliferative/cytotoxicity assay, SCC-12; format: cell-based, human; settings: for IC50: non-melanoma, MTT, 48 h, read-out: IC50 SCC-12; for selectivity index (SI) SCC-12: IC50 HaCaT divided by IC50 SCC-12
Protocol: (§1) Human-derived GFP-expressing melanoma A375 and epidermoid carcinoma A431 cell lines were purchased from Angio-Proteomie (Boston, MA). Human melanoma carcinoma SK-MEL-28 and human immortalised keratinocytes (HaCaT) cell lines were acquired from American Type Culture Collection (ATCC; Manassas, VA). […] The growth media of incubated cells were changed every 2–3 days until they attained 70–80% confluence, after which they were sub-cultured for experiments and re-passaging. DMSO was used as the vehicle to prepare a 10 mM stock solution of the test compounds.
(§2) Stock solutions (10 mM) were prepared by dissolving each compound to be screened in DMSO.

SK-MEL-28 = assay: MTT antiproliferative/cytotoxicity assay, SK-MEL-28; format: cell-based, human; settings: melanoma, MTT, 48 h, read-out: IC50 SKMEL-28
Protocol: (§3) Human-derived GFP-expressing melanoma A375 and epidermoid carcinoma A431 cell lines were purchased from Angio-Proteomie (Boston, MA). Human melanoma carcinoma SK-MEL-28 and human immortalised keratinocytes (HaCaT) cell lines were acquired from American Type Culture Collection (ATCC; Manassas, VA). Human cutaneous SCC cell line SCC-12[192] was generously provided by Dr. James G. Rheinwald to Dr. Tatiana Efimova. Except SK-MEL-28, which was cultured in an RPMI-1640 medium supplemented with 5% FBS, all other human immortalised cell lines were grown and maintained in DMEM containing varying percentages of FBS; 5% FBS for A431, SCC-12, and HaCaT lines, and 10% FBS for A375. All culture media were routinely supplemented with 1% PEST 100X (100 U/mL penicillin, 100 μg/mL streptomycin), and cells were cultured in incubators maintained at 37 °C under an atmosphere of 95% humidity, 20% O2, and 5% CO2. The growth media of incubated cells were changed every 2–3 days until they attained 70–80% confluence, after which they were sub-cultured for experiments and re-passaging. DMSO was used as the vehicle to prepare a 10 mM stock solution of the test compounds.
(§4) Stock solutions (10 mM) were prepared by dissolving each compound to be screened in DMSO. From these stock solutions, escalating concentrations were prepared using the corresponding cell growth media as a diluent, and the cells (65–75% confluent) were treated with (0–40 µM) or without the drug in sext- to octuplicate and incubated for 48 h. All treatment protocols and controls were prepared as previously described.
(§5) The potency and cytotoxicity of the test compounds against two cutaneous melanoma (A375 and SK-MEL-28) and two non-melanoma (A431 and SCC-12) SC cell lines in addition to a control immortalised normal human epidermal keratinocytes (HaCaT) cell line were assessed by MTT assay as previously described.

GFP-A431 = assay: MTT antiproliferative/cytotoxicity assay, A431; format: cell-based, human; settings: for IC50: non-melanoma, MTT, 48 h, read-out: IC50 GFP-A431; for selectivity index (SI) A431: IC50 HaCaT divided by IC50 A431
Protocol: as §1, §2

A375 = assay: MTT antiproliferative/cytotoxicity assay, A375; format: cell-based, human; settings: melanoma, MTT, 48 h, read-out: IC50 A375
Protocol: as §3, §4, §5

HaCaT = assay: MTT cytotoxicity assay, noncancerous HaCaT keratinocytes; format: cell-based, human; settings: Homo sapiens, HaCaT; control noncancerous keratinocytes, MTT, 48 h; read-out: IC50 HaCaT
Protocol: as §3, §4, §5

[1] = DPPH free radical scavenging assay; settings: for Percent Scavenging (DPPH): 1 mM; for IC50: N.A. = No Activity, > 1000 = not biologically relevant, read-out: IC50 Value, DPPH antioxidant activity (Table S4)
Protocol: An initial screen was done of all 25 derivatives at a concentration of 1 mM. […] Methanol was used as the diluent, and 100 µL of DPPH (200 µM; Sigma-Aldrich, St. Louis, MO) was added to each well. […] The scavenging capacity (SC) was calculated as SC% = ((ΔAcontrol – ΔAsample)/ΔAcontrol) × 100%, where ΔAcontrol was the absorbance of the reagent blank, and ΔAsample was the absorbance of the test samples. The control contained all reagents except the compounds, and all tests were performed in triplicate. Quercetin served as a positive control. The DPPH methanolic solution (1 mL) mixed with DMSO (5 µL) served as a negative control.

[2] = 500 µM, single-concentration screen, read-out: % Inhibition of tyrosinase
[3] = > 500 = not biologically relevant, read-out: IC50 Value, mushroom tyrosinase inhibition (Table S1)

| SMILES | inhibition at 500 µM (mushroom tyrosinase; [2]) [%] | IC50 (mushroom tyrosinase; [3]) [µM] | IC50 (SCC-12; Homo sapiens, SCC12, 48 h) [µM] | IC50 (SK-MEL-28; Homo sapiens, SK-MEL-28, 48 h) [µM] | IC50 (GFP-A431; Homo sapiens, A-431, 48 h) [µM] | IC50 (A375; Homo sapiens, A-375, 48 h) [µM] | IC50 (HaCaT) [µM] | Percent Scavenging (DPPH) [1] [%] | IC50 [1] [µM] | selectivity index (SI) SCC-12 (SCC-12) | selectivity index (SI) A431 (GFP-A431) | further results |
| --- | --- | --- | --- | --- | --- | --- | --- | --- | --- | --- | --- | --- |
| Cc1onc2c1CCc1ccccc1-2 [P12, 3-Methyl-4,5-dihydronaphtho[1,2-c]isoxazole] | 69.7 ± 5 | 336 | 32.6 ± 2.1 | 24 ± 2 | 55.5 ± 3.5 | 73.5 ± 3.8 | 32.6 ± 2.4 | -1.13 | – | – | – | – |
| c1ccc(-c2cc(-c3ccccc3)n(-c3ccccc3)n2)cc1 [P13, 1,3,5-Triphenyl-1H-pyrazole] | 7.66 | > 500 | 52.8 ± 2.2 | 154 ± 2.9 | 181 ± 4.7 | 93.4 ± 6.4 | 91.6 ± 4.1 | 19.44 | > 1000 | – | – | – |
| Cc1cc(-c2ccccc2)n(-c2ccccc2)n1 [P14, 3-Methyl-1,5-diphenyl-1H-pyrazole] | 97.4 ± 0.2 | – | 42.5 ± 2.8 | 33.3 ± 1.7 | 17.8 ± 0.5 | 25.8 ± 2.7 | 35.1 ± 2.8 | -23.93 | – | 0.8 | 2.0 | IC50 (mushroom tyrosinase; L-tyrosine substrate, read-out: IC50 tyrosinase inhibition): 15.9 µM; DPPH antioxidant activity (in words) [1]: inactive |
| FC(F)(F)c1cc(-c2ccccc2)n(-c2ccccc2)n1 [P15, 1,5-Diphenyl-3-(trifluoromethyl)-1H-pyrazole] | 32.2 | > 500 | 98 ± 5.5 | 36 ± 3.9 | 42.9 ± 1 | 58.5 ± 3.4 | 53.7 ± 3.1 | -23.36 | – | – | – | – |
| Cc1cc(-c2ccccc2)n(-c2ccc(Br)cc2)n1 [P16, 1-(4-Bromophenyl)-3-methyl-5-phenyl-1H-pyrazole] | 17.3 | > 500 | 19.6 ± 2 | 39.1 ± 2.3 | 21 ± 1.3 | 46 ± 1 | 54.2 ± 3.6 | -24.61 | – | 2.8 | 2.6 | – |
| Cc1cc(-c2ccccc2)n(-c2ccc(Cl)cc2)n1 [P17, 1-(4-Chlorophenyl)-3-methyl-5-phenyl-1H-pyrazole] | 95.6 ± 1.1 | 165 | 23.4 ± 1.7 | 34.2 ± 3.9 | 19.7 ± 0.8 | 44.5 ± 3 | 72.4 ± 6 | -23.30 | – | 3.1 | 3.7 | – |
| COc1ccc(-n2nc(C)cc2-c2ccccc2)cc1 [P18, 1-(4-Methoxyphenyl)-3-methyl-5-phenyl-1H-pyrazole] | 92.2 ± 3.7 | 156 | 21.9 ± 0.2 | 19.3 ± 2.4 | 25.9 ± 0.9 | 48 ± 2.1 | 49.6 ± 1.5 | -24.28 | – | 2.3 | 2.0 | – |
| CC1=NN(c2ccccc2)C(=O)C1(C)O (stereo not shown) [P20] | 39.7 | > 500 | 57.3 ± 0.2 | 50 ± 4.3 | 120 ± 2.6 | 110 ± 15.4 | 47.7 ± 2.7 | -20.03 | – | – | – | DPPH antioxidant activity (in words) [1]: no appreciable antioxidant activity |
| O=C1CC(c2ccccc2)=NN1c1ccccc1 [P21] | – | – | – | – | – | 67.8 ± 2.3 | 50.1 ± 6.5 | 73.25 | 354 | – | – | IC50 (mushroom tyrosinase; IC50 Value, mushroom tyrosinase inhibition (Table S1), > 500 = not biologically relevant): 295 µM; inhibition at 500 µM (mushroom tyrosinase; read-out: % Inhibition of tyrosinase, 500 µM, single-concentration screen): 88.9 ± 0.4%; IC50 (SCC-12; Homo sapiens, SCC12): 37.8 ± 3.2 µM; IC50 (SK-MEL-28; Homo sapiens, SK-MEL-28): 42.7 ± 4 µM; IC50 (GFP-A431; Homo sapiens, A-431): 58.6 ± 2.3 µM |
| O=C1CC(c2ccc(Br)cc2)=NN1c1ccc(Br)cc1 [P22] | 46.9 | > 500 | 19 | 31 | 13 | 29 | 47.6 ± 1.6 | 77.86 | 276 | 2.6 | 3.8 | IC50 (SCC-12): 18.7 ± 1.4 µM; IC50 (SK-MEL-28): 31.3 ± 2.4 µM; IC50 (GFP-A431): 12.6 ± 1.6 µM; IC50 (A375): 28.7 ± 1.2 µM |
| O=C1CC(c2ccc(Br)cc2)=NN1c1ccc(C(F)(F)F)cc1 [P23] | 37.6 | > 500 | 21.7 ± 1.9 | 27.4 ± 2.3 | 23.9 ± 1 | 31.2 ± 1.5 | 40.5 ± 1.5 | 77.61 | 196 | 1.9 | 1.7 | – |
| O=C1CC(c2ccc(Br)cc2)=NN1c1ccccc1 [P24] | 35.2 | > 500 | 141 ± 3.9 | 54.1 ± 1.9 | 18.6 ± 0.9 | 56.4 ± 1.7 | 60.4 ± 3.2 | 75.14 | 444 | 0.4 | 3.3 | – |
